What was measured:
[1] = system: IFN-γ or IL-5 production in human PBMC; assay: Inhibition of Interferon-Gamma (IFN-γ) or IL-5 production in human PBMC assay (MSD technology); format: cell-based; conditions: human PBMC assay or a similar assay; CYTOSTIM stimulation, 20 hours; read-out: mean pIC50 (converted)
Protocol: Inhibition of Interferon-Gamma (IFN-γ) or IL-5 Production in Human PBMC (Peripheral Blood Mononuclear Cell) Assay (MSD Technology)
A 96-well plate (96 MicroWell™ Plates Nunclon™—High Flange Design, Fisher Scientific UK, Loughborough, UK) is prepared by initially adding to column 1 ca. 10 mM of test compound dissolved in DMSO. […] The compound is further diluted with DMSO into columns 2 to 9 by 8 successive 4-fold dilutions using the Biomek® 2000 Laboratory Automation Workstation (Beckman Coulter, Inc., Fullerton, Calif.). Column 10 is used as a DMSO negative control (High Signal, 0% response), whilst column 11, which contains 10 mM of the pan-PI3K inhibitor wortmannin, is used as a positive control (Low Signal, 100% response). About 1 μl of compound is transferred to the compound plate using the Biomek® FX.
PBMC cells (peripheral blood mononuclear cells) are prepared from heparinised human blood (using 1% v/v Heparin Sodium 10001 U/ml Endotoxin Free, Leo Laboratories Ltd., Dublin. Ireland, Cat No: PL0043/0149) from normal volunteers using the Accuspin™ System-Histopaque®-1077 essentially (Sigma-Aldrich Company Ltd., Gillingham Dorset, UK). About 20 ml of blood is overlaid onto 15 ml Histopaque® in Accuspin™ tubes. The tube is then centrifuged at about 800 g for ca. 20 minutes. The cells are collected from the interface, washed by centrifugation (ca. 1300 g, ca. 10 minutes) and resuspended in assay medium (Low endotoxin RPMI1640 medium, Cat No: 31870-025, Invitrogen Corporation Invitrogen Ltd, Paisley, UK) containing 10% foetal calf serum (Invitrogen Corporation, Cat No: CT2507), 2 mM L-glutamine (Invitrogen Corporation, Cat No: 25030024), 10 U/ml penicillin and 10 μg/ml streptomycin (Invitrogen Corporation, Cat No: 15140-122). Viable cells are counted by trypan blue staining and diluted to 6.6×10^5 viable cells/ml. About 150 μl of diluted cells are then added to the compound plate and incubated 37 degrees C. for 1 hour prior to addition of 50 μl of 0.125% (v/v) CYTOSTIM (Cat No: 130-092-173, Miltenyi Biotec Ltd., Bisley, Surrey, UK) diluted in assay medium. The assay plate is then incubated at 37° C., 5% CO2, for 20 hours. The supernatant is removed and the concentrations of IFN-γ and IL-5 are determined by electrochemiluminescence assay using the Meso Scale Discovery (MSD) technology (Meso Scale Discovery, Gaithersburg, Md., USA) as described below.
Supernants were assayed using MSD (Meso Scale Discovery) technology using either the ultra sensitive IFN-γ single plex or the IFN-γ/IL-5 multiplex 96-well plates (MA6000). For the IL-5/IFNg multiplex, Human Serum Cytokine Assay Diluent (25 μl) is added to the plates precoated with anti-cytokine antibody and then incubated for 24 hours at 4° C. to prevent non-specific binding. This blocking step is not required for the Ultrasensitive IFN-γ plates. About 25 μl of supernatant from the PBMC plate is then transferred from columns 1-11 to columns 1-11 of the MSD plate using the Biomek FX. About 25 μl of standard (IFN-γ Cat No. Calibrator C0AE, IL-5 Cat No. Calibrator C01AJ, Meso Scale Discovery) are added to column 12 of the MSD plate to generate a standard calibration curve (about 0 to 10000 pg/ml final). Plates are washed after 2 hours shaking with a Skanwasher 300 version B (Skatron Instruments AS. PO Box 8, N-3401 Lier, Norway). […] About 150 μl of Read Buffer T (2×) is added to the plates, which are then read on a MSD Sector 6000. […]

[2] = target: CK2 protein kinase (Homo sapiens, UniProt P68400); conditions: background, literature; cited from earlier work
CK2 protein kinase, sequence (P68400 whole entry): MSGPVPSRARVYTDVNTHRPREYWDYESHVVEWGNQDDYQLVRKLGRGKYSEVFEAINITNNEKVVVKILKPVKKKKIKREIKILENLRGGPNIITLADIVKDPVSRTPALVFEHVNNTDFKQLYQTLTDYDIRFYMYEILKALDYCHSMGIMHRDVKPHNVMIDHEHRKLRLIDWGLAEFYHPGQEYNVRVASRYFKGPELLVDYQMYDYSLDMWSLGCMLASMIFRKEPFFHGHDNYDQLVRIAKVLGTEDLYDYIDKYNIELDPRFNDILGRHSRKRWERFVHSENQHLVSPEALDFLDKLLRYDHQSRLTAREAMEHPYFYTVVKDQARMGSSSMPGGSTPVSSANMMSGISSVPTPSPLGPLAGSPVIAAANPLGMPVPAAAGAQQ

SMILES | IC50 [1] | also measured
COc1ccccc1S(=O)(=O)Nc1cc(-c2cc(NC(=O)c3csc(CN4C[C@@H](C)O[C@@H](C)C4)n3)c3cn[nH]c3c2)cnc1OC [2-{[(2R,6S)-2,6-dimethyl-4-morpholinyl]methyl}-N-{6-[6-(methyloxy)-5-({[2-(methyloxy)phenyl]sulfonyl}amino)-3-pyridinyl]-1H-indazol-4-yl}-1,3-thiazole-4-carboxamide] | ≤ 10 µM | –
O=c1cc(N2CCOCC2)oc2c(-c3ccccc3)cccc12 [LY294002] | – | IC50 [2]: 5 to 10 µM
COc1ncc(-c2cc(NC(=O)c3csc(CN4C[C@@H](C)O[C@@H](C)C4)n3)c3cn[nH]c3c2)cc1NS(=O)(=O)c1ccc(F)cc1F [Example 94, N-{6-[5-{[(2,4-Difluorophenyl)sulfonyl]amino}-6-(methyloxy)-3-pyridinyl]-1H-indazol-4-yl}-2-{[(2R,6S)-2,6-dimethyl-4-morpholinyl]methyl}-1,3-thiazole-4-carboxamide] | – | melting point: 211 to 212 °C
COc1ncc(-c2cc(NC(=O)c3csc(CN4C[C@@H](C)O[C@@H](C)C4)n3)c3cn[nH]c3c2)cc1NS(=O)(=O)CC(F)(F)F [2-{[(2R,6S)-2,6-dimethyl-4-morpholinyl]methyl}-N-[6-(6-(methyloxy)-5-{[(2,2,2-trifluoroethyl)sulfonyl]amino}-3-pyridinyl)-1H-indazol-4-yl]-1,3-thiazole-4-carboxamide] | ≤ 10 µM | –
COc1ncc(-c2cc(NC(=O)c3csc(CN4C[C@@H](C)O[C@@H](C)C4)n3)c3cn[nH]c3c2)cc1NS(=O)(=O)c1ccc(F)cc1F [N-{6-[5-{[(2,4-difluorophenyl)sulfonyl]amino}-6-(methyloxy)-3-pyridinyl]-1H-indazol-4-yl}-2-{[(2R,6S)-2,6-dimethyl-4-morpholinyl]methyl}-1,3-thiazole-4-carboxamide] | ≤ 10 µM | –
COc1ncc(-c2cc(NC(=O)c3csc(CN4C[C@@H](C)O[C@@H](C)C4)n3)c3cn[nH]c3c2)cc1NS(C)(=O)=O [2-{[(2R,6S)-2,6-dimethyl-4-morpholinyl]methyl}-N-(6-{6-(methyloxy)-5-[(methylsulfonyl)amino]-3-pyridinyl}-1H-indazol-4-yl)-1,3-thiazole-4-carboxamide] | ≤ 10 µM | –
COc1ncc(-c2cc(NC(=O)c3csc(CN4C[C@@H](C)O[C@@H](C)C4)n3)c3cnn(C)c3c2)cc1NS(C)(=O)=O [2-{[(2R,6S)-2,6-dimethyl-4-morpholinyl]methyl}-N-(1-methyl-6-{6-(methyloxy)-5-[(methylsulfonyl)amino]-3-pyridinyl}-1H-indazol-4-yl)-1,3-thiazole-4-carboxamide] | ≤ 10 µM | –

— US8163743B2, “4-carboxamide indazole derivatives useful as inhibitors of PI3-kinases” (GlaxoGroupLimited, priority 2008, dated 2012)
